Test results taken from PMC5963591, “Bitopic Binding Mode of an M1 Muscarinic Acetylcholine Receptor Agonist Associated with Adverse Clinical Trial Outcomes” (Molecular Pharmacology, 2018).

Experiments:
[1] = biological target: [35S]-GTPγS Gαq binding in rat cortex membranes; experiment: Native tissue GTPγ[35S] binding assay (Gαq antibody capture); assay type: biochemical
Procedure: GTPɣ-[^35S] ([^35S]ɣ[guanosine-5′-O-(3-[^35S]thio)triphosphate] binding in rat membranes was determined in triplicate using an antibody capture technique in 96-well plate format (DeLapp et al., 1999). Native rat membranes were prepared as follows. All procedures were performed at 4°C. Ten to fifteen milliliters of sucrose buffer (10 mM HEPES, 1 mM EGTA, 1 mM dithiothreitol, 10% sucrose, and one tablet/50 ml Complete Protease Inhibitor Cocktail, pH 7.4) was added to each tissue sample and homogenized for 10 strokes using an electric IKA RW20 homogenizer (800 rpm) (IKA, Staufen, Germany) with glass homogenizer. The homogenate was centrifuged at 1000g for 10 minutes at 4°C and the supernatant collected. The pellet was rehomogenized and centrifuged again as above and the supernatant pooled and centrifuged at 11,000g for 20 minutes at 4°C. The resulting pellet was suspended in 40 ml final storage buffer (10 mM HEPES, 1 mM EGTA, 1 mM MgCl2, and 1 mM dithiothreitol, pH 7.4) and centrifuged at 27,000g for 20 minutes at 4°C. The supernatant was removed and the final pellet was suspended in 2 ml final storage buffer. The protein concentration was measured using the Bradford method (Coomassie Plus, Bio-Rad protein assay kit; Bio-Rad, Hercules, CA) with bovine gamma globulin standards. […] Plates were counted for 1 minute/well using a Wallac MicroBeta Trilux scintillation counter (PerkinElmer). […]

C57Bl/6J mice = experiment: Contextual fear conditioning, scopolamine-induced deficit; assay type: in vivo, mouse; settings: escalating i.p. doses with scopolamine […]
Procedure: C57Bl/6J male mice (aged 8–12 weeks) were acclimatized to the behavioral testing suite at least 2 hours prior to the test. […] Mice were placed in the conditioning chamber (ANY-maze Fear Conditioning System; Stoelting, Dublin, Ireland); after a 2-minute adaptation period, they received three tone/foot shock pairings where the foot shock (unconditioned stimulus; 2 seconds; 0.4 mA) always co-terminated with a tone (conditioned stimulus; 2.8 kH; 85 dB; 30 seconds). The conditioned stimulus–unconditioned stimulus pairings were separated by 1-minute intervals. After the mice completed training, they remained in the conditioning chamber for 1 minute and were then returned to their home cages. The next day, the mice were placed back in the conditioning chamber, and time spent immobile was recorded for 3 minutes to assess context-dependent learning. Data were analyzed using ANY-maze software (Stoelting).

[2] = Mouse pharmacokinetics, unbound plasma and brain concentrations; assay type: in vivo; settings: mice, 30 minutes after i.p. administration
Procedure: Pharmacokinetic analyses were conducted as previously described ([Witkin et al., 2017]). Compounds were administered via intraperitoneal injection (in 5% glucose) 30 minutes prior to blood collection. Mice were anesthetized with 3% isoflurane (2 l/min), and blood was collected by cardiac puncture of the left ventricle. Blood was immediately transferred to EDTA tubes and centrifuged at 1000g for 10 minutes at 4°C; the supernatant was collected and frozen. Brains from each mouse were also dissected and snap-frozen on dry ice.
Brain samples were homogenized in three volumes of methanol/water [1:4 (v/v)] by weight. A 25-μl aliquot of each study sample, calibration standard, and control sample was added to a 96-well plate and mixed with 180 μl acetonitrile/methanol [1:1 (v/v)] containing internal standard. The samples were subsequently centrifuged, and the resulting supernatants were diluted 12.5-fold with methanol/water [1:1 (v/v)] prior to analyzing 10-μl aliquots by liquid chromatography–tandem mass spectrometry as previously described ([Bradley et al., 2017]).

wild-type M1 mAChR = biological target: T1, wild-type M1 mAChR (Homo sapiens, UniProt P11229); experiment: Receptor phosphorylation at serine 228, M1 wild type, CHO Flp-In cells; assay type: cell-based
T1 construct: HA; expressed in transfected cells; host or cells: CHO Flp-In

M2 mAChR = biological target: T2, M2 mAChR (Homo sapiens, UniProt P08172); experiment: ERK1/2 phosphorylation, CHO cells, M2; assay type: cell-based
T2 construct: expressed in transfected cells; host or cells: CHO
T2 sequence (P08172 whole entry): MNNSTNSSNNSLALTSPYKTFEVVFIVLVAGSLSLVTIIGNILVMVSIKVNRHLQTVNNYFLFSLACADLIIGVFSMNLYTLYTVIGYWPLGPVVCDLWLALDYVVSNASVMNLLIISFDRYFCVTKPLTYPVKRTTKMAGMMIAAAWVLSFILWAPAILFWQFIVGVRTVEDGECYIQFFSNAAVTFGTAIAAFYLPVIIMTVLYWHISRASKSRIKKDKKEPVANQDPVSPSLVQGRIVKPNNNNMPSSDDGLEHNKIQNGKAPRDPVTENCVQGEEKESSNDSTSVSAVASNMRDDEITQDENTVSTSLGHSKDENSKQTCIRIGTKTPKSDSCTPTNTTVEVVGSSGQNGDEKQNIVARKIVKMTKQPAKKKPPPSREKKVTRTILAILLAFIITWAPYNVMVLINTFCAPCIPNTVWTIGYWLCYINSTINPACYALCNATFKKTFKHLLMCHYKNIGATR

human M1 receptor = biological target: T3, human M1 receptor (Homo sapiens, UniProt P11229); experiment: ERK1/2 phosphorylation, CHO Flp-In human M1 cells; assay type: cell-based
T3 construct: expressed in transfected cells; host or cells: CHO Flp-In
T3 sequence (P11229 1-460): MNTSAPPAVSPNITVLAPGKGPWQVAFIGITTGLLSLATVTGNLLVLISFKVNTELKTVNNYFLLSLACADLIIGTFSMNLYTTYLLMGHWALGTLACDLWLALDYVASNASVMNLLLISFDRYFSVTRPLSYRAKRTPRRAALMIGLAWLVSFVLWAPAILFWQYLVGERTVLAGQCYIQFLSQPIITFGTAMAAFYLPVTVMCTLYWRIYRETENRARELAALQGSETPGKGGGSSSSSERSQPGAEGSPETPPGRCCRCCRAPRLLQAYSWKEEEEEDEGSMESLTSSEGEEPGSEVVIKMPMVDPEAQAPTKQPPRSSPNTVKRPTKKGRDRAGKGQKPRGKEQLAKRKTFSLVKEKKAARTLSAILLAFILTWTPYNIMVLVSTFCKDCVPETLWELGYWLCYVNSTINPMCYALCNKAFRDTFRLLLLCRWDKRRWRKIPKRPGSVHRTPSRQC
Procedure: CHO Flp-In cells stably expressing the human M1 receptor were seeded onto transparent 96-well plates at 20,000 cells/well and grown to confluence. Cells were serum starved overnight prior to the experiment. Prior to the stimulations, cells were washed with 100 μl phosphate-buffered saline and then incubated in serum free F12 medium at 37°C. Cells were stimulated with ligands for 5 minutes at 37°C in a final volume of 200 μl. The stimulations were terminated by rapid aspiration and addition of 50 μl lysis buffer supplemented with blocking reagent per the manufacturer’s instructions, followed by gentle agitation at room temperature for 30 minutes. Subsequently, 16 μl of this lysate was transferred to a 384-well white ProxiPlate (PerkinElmer) and incubated with 4 μl premixed antibody solution for 2 hours at room temperature.
For the analysis, all families of agonist curves at each pathway were globally fitted to the model with the parameters, basal, Em, and n shared between all agonists. For full agonists, the LogKA was constrained to a value of zero, whereas for partial agonists this was directly estimated by the curve fitting procedure; the Log(τ/KA) parameter was estimated as a unique measure of activity for each agonist.

pEC50, [^35S]-GTPγS Gαq binding [1]: 6.7 ± 0.1 | [^35S]-GTPγS Gαq binding, maximum relative to oxotremorine-M ([1]; % of maximum elicited by oxotremorine-M): approximately 37% | free brain concentration versus dose [2]: increase linearly with escalating doses | pSer228 immunoreactivity (wild-type M1 mAChR): concentration-dependent increase | functional activity in ERK1/2 phosphorylation (M2 mAChR): partial agonist activity | ERK1/2 Phosphorylation ΔLog10(τ/KA) (human M1 receptor; normalized to reference ligand ACh): 0.1 ± 0.1 | ERK1/2 Phosphorylation Log10(τ/KA) (human M1 receptor; transduction coefficient, wild-type M1 mAChR): 7.2 ± 0.1
Compound: Cc1cc(F)c2[nH]c(=O)n(C3CCN(C4CCOCC4)CC3)c2c1 [GSK1034702, 7-fluoro-5-methyl-3-[1-(oxan-4-yl)piperidin-4-yl]-1H-benzimidazol-2-one]
shape of the dose response on learning and memory (C57Bl/6J mice): bell shaped
